“Also recorded” adds a separate entry of the source.
Experiments:
[1] = system: mantel cell lymphoma (MCL) cell lines; test: Anti-cancer activity in MCL cell lines; format: cell-based; conditions: four of six lines tested were responsive; read-out: mean IC50 among the responsive lines
NHL cell lines = test: NHL cell line growth inhibition assay (CellTiter-Glo, 96 hr); format: cell-based; conditions: variety of cancer assays (FIG. 45A-C, FIG. 52)
[2] = biological target: T1, Sal-like protein 4 (SALL4) (Homo sapiens, UniProt Q96SW2+Q9UJQ4); test: SALL4 degradation in KELLY neuroblastoma cell line; format: cell-based; conditions: at 10 nM
T1 construct: endogenous in cells; host or cells: KELLY neuroblastoma cell line
T1 sequence (Q9UJQ4 whole entry): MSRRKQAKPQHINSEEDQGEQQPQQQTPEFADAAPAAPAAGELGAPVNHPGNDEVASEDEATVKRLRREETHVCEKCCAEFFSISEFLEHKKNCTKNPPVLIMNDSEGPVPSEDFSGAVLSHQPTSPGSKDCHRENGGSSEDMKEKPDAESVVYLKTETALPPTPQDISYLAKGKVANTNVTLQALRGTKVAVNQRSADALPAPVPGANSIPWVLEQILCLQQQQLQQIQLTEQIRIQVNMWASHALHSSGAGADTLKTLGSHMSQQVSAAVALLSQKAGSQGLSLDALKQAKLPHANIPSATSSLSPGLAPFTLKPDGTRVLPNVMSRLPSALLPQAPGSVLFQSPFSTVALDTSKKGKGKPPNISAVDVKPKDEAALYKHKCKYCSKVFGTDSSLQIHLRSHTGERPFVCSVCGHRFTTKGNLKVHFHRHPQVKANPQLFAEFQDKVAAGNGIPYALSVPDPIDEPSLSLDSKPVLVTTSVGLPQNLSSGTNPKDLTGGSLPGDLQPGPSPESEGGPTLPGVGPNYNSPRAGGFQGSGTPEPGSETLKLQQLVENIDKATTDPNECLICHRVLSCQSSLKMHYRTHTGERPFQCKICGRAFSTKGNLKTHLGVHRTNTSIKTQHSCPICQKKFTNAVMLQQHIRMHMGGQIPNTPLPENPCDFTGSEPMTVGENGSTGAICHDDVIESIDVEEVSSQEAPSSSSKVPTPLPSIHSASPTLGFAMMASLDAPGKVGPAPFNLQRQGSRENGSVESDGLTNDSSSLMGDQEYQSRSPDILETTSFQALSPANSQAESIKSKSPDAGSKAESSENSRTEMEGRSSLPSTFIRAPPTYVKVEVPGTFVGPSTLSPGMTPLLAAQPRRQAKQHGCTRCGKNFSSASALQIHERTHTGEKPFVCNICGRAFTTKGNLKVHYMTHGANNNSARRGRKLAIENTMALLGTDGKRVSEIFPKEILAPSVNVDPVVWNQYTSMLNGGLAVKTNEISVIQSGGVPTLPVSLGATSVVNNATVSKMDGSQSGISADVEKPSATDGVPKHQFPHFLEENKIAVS
T1 sequence (Q96SW2 whole entry): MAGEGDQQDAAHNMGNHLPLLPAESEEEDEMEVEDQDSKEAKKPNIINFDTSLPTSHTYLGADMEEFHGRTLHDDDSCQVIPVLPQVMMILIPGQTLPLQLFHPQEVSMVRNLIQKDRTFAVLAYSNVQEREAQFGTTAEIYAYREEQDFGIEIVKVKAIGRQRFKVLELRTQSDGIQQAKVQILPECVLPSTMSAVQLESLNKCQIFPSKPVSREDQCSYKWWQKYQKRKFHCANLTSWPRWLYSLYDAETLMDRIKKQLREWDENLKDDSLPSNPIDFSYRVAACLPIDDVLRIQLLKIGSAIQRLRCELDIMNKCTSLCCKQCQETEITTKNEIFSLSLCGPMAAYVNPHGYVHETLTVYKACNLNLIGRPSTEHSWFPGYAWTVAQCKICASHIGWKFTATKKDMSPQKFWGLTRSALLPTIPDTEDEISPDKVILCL
T1 sequence (Q16531 2-1140 partner limits assumed): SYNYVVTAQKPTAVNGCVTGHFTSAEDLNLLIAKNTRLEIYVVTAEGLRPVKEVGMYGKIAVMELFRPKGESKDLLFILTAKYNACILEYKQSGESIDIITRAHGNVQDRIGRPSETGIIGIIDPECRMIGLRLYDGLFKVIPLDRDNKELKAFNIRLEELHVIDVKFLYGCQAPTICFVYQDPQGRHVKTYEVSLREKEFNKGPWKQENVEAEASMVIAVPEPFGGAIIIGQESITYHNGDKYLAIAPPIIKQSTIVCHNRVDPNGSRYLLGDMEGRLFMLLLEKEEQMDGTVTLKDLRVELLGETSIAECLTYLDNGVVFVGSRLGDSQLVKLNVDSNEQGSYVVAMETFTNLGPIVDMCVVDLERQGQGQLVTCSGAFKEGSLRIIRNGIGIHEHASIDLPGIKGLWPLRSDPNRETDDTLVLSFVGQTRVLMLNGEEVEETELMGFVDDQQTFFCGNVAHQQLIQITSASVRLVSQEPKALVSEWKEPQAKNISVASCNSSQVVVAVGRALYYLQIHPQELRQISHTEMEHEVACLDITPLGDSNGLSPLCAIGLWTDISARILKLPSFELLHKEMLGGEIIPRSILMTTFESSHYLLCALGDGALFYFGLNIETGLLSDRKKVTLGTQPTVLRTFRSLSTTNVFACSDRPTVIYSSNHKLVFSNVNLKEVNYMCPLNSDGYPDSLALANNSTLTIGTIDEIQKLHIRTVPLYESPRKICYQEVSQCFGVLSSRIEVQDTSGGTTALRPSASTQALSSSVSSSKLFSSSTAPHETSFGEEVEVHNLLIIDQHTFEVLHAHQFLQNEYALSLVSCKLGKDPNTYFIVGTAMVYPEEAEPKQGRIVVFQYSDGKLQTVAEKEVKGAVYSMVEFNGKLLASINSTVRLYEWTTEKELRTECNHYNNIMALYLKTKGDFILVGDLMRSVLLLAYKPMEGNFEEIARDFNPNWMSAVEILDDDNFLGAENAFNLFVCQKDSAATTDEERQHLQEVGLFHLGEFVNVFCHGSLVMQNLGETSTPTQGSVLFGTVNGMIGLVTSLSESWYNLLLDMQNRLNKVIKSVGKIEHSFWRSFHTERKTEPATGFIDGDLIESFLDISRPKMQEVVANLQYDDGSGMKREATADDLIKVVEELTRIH
Procedure: Specific studies were carried out to assess the ability of Compound 1 to degrade Sal-like protein 4 (SALL4), a protein implicated in the teratogenicity induced by the IMiD®s class of IKZF1/IKZF3 degraders.

[3] = biological target: G1 to S Phase Transition 1 (GSPT1) (Homo sapiens, UniProt P15170); test: Targeted cell-based assay for GSPT1; conditions: up to 10 μM
Sequence of G1 to S Phase Transition 1 (GSPT1) (Q96SW2 whole entry partner, species assumed): as the sequence (Q96SW2 whole entry) above
Sequence of G1 to S Phase Transition 1 (GSPT1) (Q16531 2-1140 partner limits assumed, species assumed): as the sequence (Q16531 2-1140 partner limits assumed) above
Sequence of G1 to S Phase Transition 1 (GSPT1) (P15170 whole entry, species assumed): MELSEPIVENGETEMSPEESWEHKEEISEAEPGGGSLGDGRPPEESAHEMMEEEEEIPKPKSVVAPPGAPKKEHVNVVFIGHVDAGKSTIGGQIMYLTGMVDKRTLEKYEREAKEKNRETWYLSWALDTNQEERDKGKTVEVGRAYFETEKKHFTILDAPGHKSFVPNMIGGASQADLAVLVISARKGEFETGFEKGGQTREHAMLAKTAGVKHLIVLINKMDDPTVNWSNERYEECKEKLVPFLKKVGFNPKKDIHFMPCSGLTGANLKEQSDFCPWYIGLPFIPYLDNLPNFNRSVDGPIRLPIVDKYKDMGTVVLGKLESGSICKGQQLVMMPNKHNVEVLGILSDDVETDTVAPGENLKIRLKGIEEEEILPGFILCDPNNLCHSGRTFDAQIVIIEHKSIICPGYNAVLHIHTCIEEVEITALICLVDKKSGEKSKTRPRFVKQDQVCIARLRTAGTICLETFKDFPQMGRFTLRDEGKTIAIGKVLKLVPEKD

[4] = system: NCI-H929 multiple myeloma tumors; test: NCI-H929 multiple myeloma xenograft, NOD SCID mice (Example 13); format: in vivo
Procedure: (§1) Compound 1 efficacy in two multiple myeloma cell lines (NC-H929) and (RPMI-8226) was evaluated at four different doses: 3 μg/kg, 10 μg/kg, 30 μg/kg, and 100 μg/kg. Compound 1 was administered QD (every day) orally (PO). […]
For the NCI-H929 cells, the xenograft study was conducted in female NOD SCID mice bearing NCI-H929 multiple myeloma tumors.
Statistical analysis was performed using two-way analysis of variance (ANOVA). Data are expressed as MTV±SEM.

H929 PomR tumors = test: Pomalidomide resistant H929 PomR xenograft; format: in vivo, mice; conditions: 100 μg/kg/day PO
Source text: Data are expressed as MTV±SEM.

RPMI-8226 tumors = test: RPMI-8226 xenograft, crossover from pomalidomide to Compound 1; format: in vivo, mice; conditions: 100 μg/kg/day
Procedure: Vehicle treated animals were treated for 28 days until tumors reached a MTV of 2211 mm^3. […] Data are expressed as MTV±SEM.
Tumor growth was monitored throughout the study. […] Measurements were twice weekly. The health of the mice was monitored, and noteworthy clinical observations were recorded. Acceptable toxicity was defined as a group's mean BW loss of less than 20% during the study and not more than one treatment related death among ten treated animals, or 10%.
Animals were weighed on a twice weekly schedule.

IKZF1 and IRF-4 = test: KI-JK ALCL tumor pharmacodynamic study, western blot (Example 17); format: in vivo, mice; conditions: single dose, 6-hour and 24-hour timepoint
Procedure: A pharmacodynamic study was also conducted in female NOD SCID mice bearing KI-JK ALCL tumors. […] Once tumors reached a volume of 450 mm^3 they were stratified into 3 treatment groups, consisting of 4 mice each.
Mice were sacrificed and tumors harvested at 6 and 24 hours post single dose. Tumors were mechanically homogenized, and protein extracted using RIPA buffer (Sigma Aldrich). Protein concentration was quantified using a Pierce™ BCA Protein Assay Kit, samples were reduced, and equal protein amounts were then loaded onto a western blot gel for analysis. Samples were analyzed for IKZF1 (Invitrogen, PA5-23728) and IRF-4 (CST, 15106) expression. Data is expressed as percentage of IKZF1 or IRF-4 in comparison to the vehicle control and normalized to GAPDH levels to control for protein loading. Error bars represent ±SEM values.

DL-40 ALCL tumors = test: DL-40 ALCL xenograft efficacy (Example 19); format: in vivo, mice
Procedure: A xenograft study was conducted in female NOD SCID mice bearing DL-40 ALCL tumors. […]

tumor xenografts = test: Mouse xenograft tumor models (summary); format: in vivo
Procedure: as §1

[5] = system: RPMI-8226 multiple myeloma tumors; conditions: Combination
Procedure: A xenograft study was conducted in female CB17 SCID mice bearing RPMI-8226 multiple myeloma tumors. Female SCID mice were inoculated subcutaneously in the right flank with 10×10^6 tumors cells in 0.2 mL of PBS supplemented with matrigel (PBS:matrigel=1:1). Tumor volume was measured twice weekly in two dimensions using calipers, and volume was calculated using the formula: (w2×l)/2=mm^3, assuming 1 mg is equivalent to 1 mm^3 of tumor volume. […] Treatment began on Day 0 with established subcutaneous RPMI-8226 tumors with a mean tumor volume (MTV) of 130 mm^3.
All agents were administered to mice bearing RPMI-8226 tumors on day 0 and dosed until an individual moue tumor volume reached or exceeded 1000 mm^3, at which point the mouse was removed from the study and dosing stopped. […] Dexamethasone was dosed IV once a week at 5000 μg/kg and formulated in saline. […] Body weight and MTV were measured on a 2× weekly schedule. The study end point was reaching a TV greater than 1000 mm^3, at which point any mouse with a TV reaching this cut off TV was removed from the study. […] The survival analysis used was Logrank (Mantel-Cox test). Data are expressed as MTV±SEM.

KARPASS422 = test: Anti-proliferative activity, 96 hours
RL = test: Anti-proliferative activity, 96 hours; conditions: Homo sapiens
DOHH-2 = test: Anti-proliferative activity, 96 hours; conditions: Homo sapiens, DOHH-2, 96 h
Farage = test: Anti-proliferative activity, 96 hours
SU-DHL-1 = test: Anti-proliferative activity, 96 hours; conditions: Homo sapiens, SU-DHL-1, 96 h
KIJK = test: Anti-proliferative activity, 96 hours
KMM-1 = test: Anti-proliferative activity, 96 hours; conditions: KMM-1, 96 h
H929 = test: Anti-proliferative activity, 96 hours; conditions: Homo sapiens, NCI-H929, 96 h
MM.1R = test: Anti-proliferative activity, 96 hours
KMS-26 = test: Anti-proliferative activity, 96 hours; conditions: KMS-26, 96 h
IKZF1 = IKZF1 (Homo sapiens, UniProt Q13422+Q96SW2)
Sequence of IKZF1 (Q13422 whole entry): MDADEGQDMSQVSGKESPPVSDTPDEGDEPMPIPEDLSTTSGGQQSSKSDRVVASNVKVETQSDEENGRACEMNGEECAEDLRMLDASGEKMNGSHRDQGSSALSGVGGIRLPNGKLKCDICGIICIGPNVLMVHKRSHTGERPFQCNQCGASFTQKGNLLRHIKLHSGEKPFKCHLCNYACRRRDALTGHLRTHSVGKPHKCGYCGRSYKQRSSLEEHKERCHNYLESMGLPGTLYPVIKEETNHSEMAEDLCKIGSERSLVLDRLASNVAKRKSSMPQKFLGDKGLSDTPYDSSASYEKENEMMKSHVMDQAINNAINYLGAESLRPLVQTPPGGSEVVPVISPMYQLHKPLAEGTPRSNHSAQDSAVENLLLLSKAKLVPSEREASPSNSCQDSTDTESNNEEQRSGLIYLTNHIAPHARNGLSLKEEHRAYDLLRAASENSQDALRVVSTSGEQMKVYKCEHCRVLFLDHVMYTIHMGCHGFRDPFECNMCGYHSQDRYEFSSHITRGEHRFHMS
Sequence of IKZF1 (Q96SW2 whole entry): as the sequence (Q96SW2 whole entry) above
Sequence of IKZF1 (Q16531 2-1140 partner limits assumed): as the sequence (Q16531 2-1140 partner limits assumed) above
Procedure: Endogenous expression of IKZF1 in NCIH929 cells was determined by addition of N-terminal HiBiT tag to the NCIH929 cell line using CRISPR-Cas9. Briefly, test compound was added to 384-well plates at a top concentration of 1 μM with 10 points, half log titration in duplicates. NCIH929 cells expressing HiBiT-tagged IKZF1 were seeded into the 384-well plates in RPMI medium containing 10% FBS and 0.05 mM 2-mercaptoethanol at a cell density of 15000 cells per well. Cells treated in the absence of the test compound were the negative control and wells containing media only were the positive control. Following compound treatment, cells were incubated at 37° C. with 5% CO2 for 1.5 hr. HiBiT signal was determined using Nano-Glo™ HiBiT Lytic Assay System (Promega, N3050) and luminescence was acquired on EnVision™ Multilabel Reader (PerkinElmer, Santa Clara, Calif., USA). % IKZF1 remaining was determined by normalizing the signal with positive and negative controls on the same microtiter plate. […] Curve fit and IC50 determination was performed by 4 parametric regression analysis.
NCIH929 cells expressing HiBiT-tagged IKZF1 were seeded into the 384-well plates in RPMI medium containing 10% FBS and 0.05 mM 2-mercaptoethanol at a cell density of 15000 cells per well. Cells treated in the absence of the test compound were the negative control and wells containing media only were the positive control. Following compound treatment, cells were incubated at 37° C. with 5% CO2 for 1 or 2 hr. HiBiT signal was determined using Nano-Glo™ HiBiT Lytic Assay System (Promega, N3050) and luminescence was acquired on EnVision™ Multilabel Reader (PerkinElmer, Santa Clara, Calif., USA). % IKZF1 remaining was determined by normalizing the signal with positive and negative controls on the same microtiter plate. Curve fit and IC50 determination was performed by 4 parametric regression analysis.

O=C1CC[C@H](N2C(=O)c3cccc4c(Cc5ccc(CN6CCOCC6)cc5)ccc2c34)C(=O)N1 (single isomer, unassigned) [Compound 1]
IC50 [1]: 13 nM | more potent than pomalidomide (NHL cell lines): more than 100 fold | degradation of SALL4 [2]: more than 85% | effect on GSPT1 [3]: no significant effect | Statistical Significance Compared to Vehicle ([4]; 3 μg/kg PO QD): 0.04 | Statistical Significance Compared to Vehicle ([4]; 10 μg/kg PO QD): 0.0002 | Statistical Significance Compared to Vehicle ([4]; 30 μg/kg PO QD): 0.0004 | Statistical Significance Compared to Vehicle ([4]; 100 μg/kg PO QD): 0.0004 | tumor volume versus pomalidomide 3000 μg/kg ([4]; 3, 10, 30 and 100 μg/kg, NCI-H929 and RPMI-8226): reduced tumor volume more than pomalidomide | tumors versus pomalidomide 3000 μg/kg/day (H929 PomR tumors): smaller | tumor volume after crossover from pomalidomide (RPMI-8226 tumors): rapid tumor regression; also recorded: began to decrease | percentage of IKZF1 and IRF-4 compared to pomalidomide (IKZF1 and IRF-4): smaller | Statistical Significance Compared to Vehicle (DL-40 ALCL tumors; 3 μg/kg PO daily): 0.0111 | Statistical Significance Compared to Vehicle (DL-40 ALCL tumors; 10 μg/kg PO daily): 0.0006 | Statistical Significance Compared to Vehicle (DL-40 ALCL tumors; 30 μg/kg PO daily): 0.0004 | Statistical Significance Compared to Vehicle (DL-40 ALCL tumors; 100 μg/kg PO daily): 0.0004 | Statistical Significance Compared to Vehicle (DL-40 ALCL tumors; 300 μg/kg PO daily): 0.0004 | tumor volume (DL-40 ALCL tumors; 30, 100, and 300 μg/kg, 21 days): able to reduce tumor volume | tumor response (tumor xenografts; daily dosing at 30 μg/kg/day to 100 μg/kg/day, several tumor xenografts): durable tumor regression | efficacy (tumor xenografts; from 3 μg/kg/day to 100 μg/kg/day): dose dependent efficacy | Median Survival ([5]; Compound 1 10 μg/kg PO daily, Dexamethasone 5000 μg/kg IV once a week): 33 | Statistical Significance Compared to Vehicle ([5]; survival, Logrank, Compound 1 10 μg/kg, Dexamethasone 5000 μg/kg): 0.007 | IC50 (KARPASS422): 0.189 nM | IC50 (RL): 2.32 nM | IC50 (DOHH-2): 2.73 nM | IC50 (Farage): 56.3 nM | IC50 (SU-DHL-1): 0.415 nM | IC50 (KIJK): 0.583 nM | IC50 (KMM-1): 0.059 nM | IC50 (H929): 0.073 nM | IC50 (MM.1R): 0.083 nM | IC50 (KMS-26): 0.789 nM | DC50 (IKZF1; 2 hour treatment): 0.021 nM | Emax (IKZF1; NCI-H929, read-out: Mean Emax (%) ± SD, IKZF1 Degradation): 22.4 ± 3.1% | Dmax (IKZF1; NCI-H929, read-out: maximal degradation of IKZF1): > 80% | IKZF1 degradation (IKZF1; after 1 hour treatment): 50% | potency greater than pomalidomide (IKZF1; at 2 hr): > 2000 fold | degradation of steady state IKZF1 (IKZF1; multiple myeloma cells, within 1.5 hours at 0.3 nM): > 75%

Source: patent US20230190760A1, “ADVANTAGEOUS THERAPIES FOR DISORDERS MEDIATED BY IKAROS OR AIOLOS” (C4 Therapeutics, Inc., priority 2020, published 2023)
